# Structures can show the parent of a compound that is named as a salt.
# How the values were obtained:
# KB-PR tumors = assay: Paclitaxel-resistant KB-PR tumor xenograft in nu/nu mice; type: in vivo
# Protocol: (§1) Four- to eight-week-old female nu/nu mice and rats (Harlan Sprague Dawley, Inc.), were maintained on a standard 12-h light–dark cycle and fed ad libitum with a low-folate chow (Harlan Teklad diet #TD.01013, Madison, WI) for the duration of dosing and 1 week post dosing schedule. Mice and rats were then switched to Teklad Global 18% Rodent diet (Harlan Teklad diet #2018S) during the monitoring phase of the study. Parental KB, KB-CR2000 or KB-PR10 cells (1 × 10^6/100 µL per nu/nu mouse and 5 × 10^6/200 µL per nu/nu rat) were injected into the subcutis of the dorsal medial area. Mice were divided into groups of 5 and rats in groups of 3–4, and freshly prepared test articles were injected through the lateral tail vein under sterile conditions in a volume of 200 μL/20 g of PBS. In mice, intravenous treatments typically initiated on day 7 PTI when KB tumors were approximately 111–168 mm^3 in volume, on day 5 PTI when the KB-PR tumors were about 205–243 mm^3, and on day 6 PTI when the KB-CR tumors were around 98 to 168 mm^3. Treatments in rats were started on day 10 PTI when KB tumors were approximately 412–704 mm^3 in volume.
# (§2) Animals in the control groups received no treatment. Growth of each subcutaneous tumor was followed by measuring the tumor 3 times per week during treatment and twice per week thereafter, until a maximum volume of 1,500 mm^3 for mice and 15,000 mm^3 for rats were reached. Tumors were measured in two perpendicular directions using Vernier calipers, and their volumes were calculated as V = 0.5 × L × W^2, where L = measurement of longest axis in mm and W = measurement of axis perpendicular to L in mm[16]. As a general measure of gross toxicity, changes in body weights were determined on the same schedule as tumor volume measurements. Survival of animals was monitored daily. Animals that were moribund (or unable to reach food or water) were euthanized by CO2 asphyxiation. Individual tumor response endpoints were reported in terms of tumor volume change. A partial response (PR) was defined as volume regression > 50% but with measurable tumor (> 2 mm^3) remaining at all times. Complete response (CR) was defined as a disappearance of measurable tumor mass (< 2 mm^3) at some point within 90 days after tumor implantation. Cures were defined as CRs without tumor regrowth within the 90-day study time frame.
# [1] = system: ST070 patient derived xenograft; assay: ST070 ovarian PDX model; type: in vivo, nu/nu mice
# Protocol: (§3) Patient derived xenograft (PDX) studies were performed at South Texas Accelerated Research Therapeutics (START, San Antonio, TX). Patient tumor tissues were obtained with patients’ informed consent and PDX models were generated after multiple generations in mice. […] Tumor fragments were harvested from host animals and implanted into 6–12 weeks old female athymic nude mice (Crl:NU(NCr)-Foxn1nu). Intravenous treatments were initiated when ST502 (triple negative breast) tumors were approximately 112–333 mm^3, ST738 (triple negative breast) tumors were 112–300 mm^3, ST040 (endometrial) tumors were 78–333 mm^3, and ST070 (ovarian) tumors were 131–266 mm^3 in volume.
# as §2
# [2] = system: ST040 patient derived xenograft; assay: ST040 endometrial PDX model; type: in vivo, nu/nu mice
# Protocol: as §3, §2
# [3] = system: ST738 patient derived xenograft; assay: ST738 triple negative breast PDX model; type: in vivo, nu/nu mice; conditions: Eribulin mesylate 1 mg/kg SIW x 2 weeks, n=7
# Protocol: as §3, §2
# [4] = system: ST502 patient derived xenograft; assay: ST502 triple negative breast PDX model; type: in vivo, nu/nu mice
# Protocol: as §3, §2
# [5] = Whole blood stability, rat; type: in vitro ADME; conditions: 37 °C, after two hours, read-out: percent remaining in whole blood
# Protocol: (§4) Whole blood and plasma stability were determined for EC2629 and EC2491 at a concentration of 500 nM. Samples were extracted and analyzed using fit-for-purpose bioanalytical methods. EC2629 or EC2491 was spiked into 1 mL whole blood or plasma maintained at 37 °C for 30 min prior to use . Fifty µl aliquots were then removed at defined timepoints and stored in a 1.2 mL extraction plate prior to analysis. Samples were then extracted using protein precipitation with a 3:1 ratio of acetonitrile after addition of internal standard. The supernatant was then transferred to a new plate, evaporated, and reconstituted prior to LC–MS/MS analysis.
# Plasma stability, dog = type: in vitro ADME; conditions: 37 °C
# Protocol: as §4
# Plasma stability, rat = type: in vitro ADME; conditions: 37 °C
# Protocol: as §4
# [6] = Whole blood stability, dog; type: in vitro ADME; conditions: 37 °C, after two hours, read-out: percent remaining in whole blood
# Protocol: as §4
# [7] = Liver microsome stability assay, rat; type: in vitro ADME; conditions: 1 µM; for percent of compound remaining: male rat liver microsomes, 37 °C
# Protocol: (§5) Appropriate microsomes (XenoTech) were incubated with EC2491 in the presence or absence of NADPH regenerating system (Corning Gentest) at 37 °C. Incubations with NADPH contained 352.5 μL DI water, 100 μL 0.5 M potassium phosphate buffer, pH 7.4, 25 μL NADPH solution A, […], and 12.5 μL of the appropriate microsomes. Incubations without NADPH contained 382.5 μL water, 100 μL 0.5 M potassium phosphate buffer, pH 7.4, and 12.5 μL of the appropriate microsomes. 50 μL aliquots were withdrawn at various time points and mixed with internal standard, EC3044 (Endocyte) in acetonitrile. After mixing and evaporation of the acetonitrile, the samples were reconstituted. The samples were mixed, centrifuged, and 100 μL of supernatant was transferred to a new plate prior to LC–MS/MS analysis.
# [8] = Liver microsome stability assay, dog; type: in vitro ADME; conditions: 1 µM; for percent of compound remaining: 37 °C
# Protocol: as §5
# [9] = Whole blood stability, mouse; type: in vitro ADME; conditions: 37 °C, after two hours, mouse whole blood, read-out: percent remaining in whole blood
# Protocol: as §4
# [10] = Plasma protein binding (ultrafiltration), across all species; type: in vitro ADME; conditions: rat, mouse, dog, human, 37 °C, read-out: plasma protein binding, range across all species
# Protocol: Plasma ultrafiltration was used for determination of free and protein bound fractions of EC2629 and EC2491. Samples were extracted and analyzed using fit-for-purpose bioanalytical methods. Briefly, 500 nM EC2629 or EC2491 was spiked into plasma maintained at 37 °C prior to plasma ultrafiltration. Plasma spiked with 500 nM EC2629 or EC2491 was allowed to equilibrate at 37 °C for 30 min prior to processing. Next, 50 μL of plasma was transferred to a clean 1.2 mL plate stored at 2–8 °C for further processing. The remaining plasma sample volumes were transferred to 30 Kd MWCO PES filter to generate plasma ultrafiltrate by centrifugation at 10,000×g for 20 min. After which, 50 μL of each plasma ultrafiltrate was transferred to separate wells in a clean 1.2 mL plate. To all spiked plasma samples, 50 μL of blank plasma ultrafiltrate was added. 50 μL of blank plasma was added to all experimental ultrafiltrate samples. These blank matrix additions normalized the matrix effects for protein binding determination. Samples were then extracted using protein precipitation with a 3:1 ratio of acetonitrile after addition of internal standard. The supernatant transferred to a new plate, evaporated, and reconstituted prior to LC–MS/MS analysis.
# [11] = Liver microsome stability assay, human; type: in vitro ADME; conditions: 1 µM, human liver microsomes, 37 °C
# Protocol: as §5
# [12] = Whole blood stability, human; type: in vitro ADME; conditions: 37 °C, after two hours, human whole blood, read-out: percent remaining in whole blood
# Protocol: as §4
# [13] = Stability in phosphate buffer pH 7.4; type: physicochemical; conditions: 1 µM, 0.1 M phosphate buffer, pH 7.4, up to 1 h at 37 °C
# Protocol: The in vitro metabolic stability of EC2491 was evaluated using rat, dog, and human liver microsomes in the presence and absence of NADPH. Stability of EC2491 was also evaluated in phosphate buffer, pH 7.4, under the incubation conditions (see Fig. 7a). EC2491 (1 µM) is stable in 0.1 M phosphate buffer, pH 7.4 up to 1 h at 37 °C. When EC2491 (1 µM) is incubated with male rat, dog, and human microsomes in the absence of NADPH, there is some depletion of the compound such that approximately 63%, 56%, and 49% of the compound remains after 1 h in rat, dog, and human microsomes, respectively. […] In the presence of NADPH male rat liver microsomes metabolize EC2491 rapidly such that only 2% of the compound remains in the incubation mixture at the end of 1 h. Male dog and human liver microsomes metabolize EC2491 somewhat slowly (22% and 18% remaining at the end of 1 h respectively). This is indicative of CYP-mediated metabolism of EC2491.
# Plasma stability, mouse = type: in vitro ADME; conditions: 37 °C
# Protocol: as §4
# [14] = design: method as in PMID 19276288; conditions: clinical studies, untargeted agent ref 19; cited from earlier work
# KB tumor xenografts = assay: KB tumor xenograft in nu/nu mice; type: in vivo; conditions: SJG-136 0.3 mg/kg SIW x 2 weeks
# Protocol: as §1, §2
# KB-CR tumors = assay: Cisplatin-resistant KB-CR tumor xenograft in nu/nu mice; type: in vivo
# Protocol: as §1, §2
# [15] = Paclitaxel 20 mg/kg TIW x 2 weeks, n=5
# [16] = Paclitaxel 15 mg/kg SIW x 2 weeks, n=7
# [17] = paclitaxel 15 mg/kg SIW x 2 weeks
# [18] = Paclitaxel 15 mg/kg SIW x 2 weeks, n=3
# [19] = Eribulin mesylate 1 mg/kg SIW x 2 weeks, n=7
# [20] = Cisplatin 3 mg/kg BIW x 2 weeks, n=5
smiles,measurement,setting,value
CC(=O)O[C@H]1C(=O)[C@@]2(C)[C@H]([C@H](OC(=O)c3ccccc3)[C@]3(O)C[C@H](OC(=O)[C@H](O)[C@@H](NC(=O)c4ccccc4)c4ccccc4)C(C)=C1C3(C)C)[C@]1(OC(C)=O)CO[C@@H]1C[C@@H]2O [paclitaxel],"CR (complete response), number of animals",KB-PR tumors; [15],0
same,"Cures, number of animals",KB-PR tumors; [15],0
same,"PR (partial response), number of animals",KB-PR tumors; [15],0
same,antitumor effect,KB-PR tumors; paclitaxel 20 mg/kg TIW x 2 weeks,very little effect
same,"CR (complete response), number of animals",[1]; [16],0
same,"Cures, number of animals",[1]; [16],0
same,"PR (partial response), number of animals",[1]; [16],0
same,antitumor effect,[1]; [17],essentially inactive
same,"CR (complete response), number of animals",[2]; [18],0
same,"Cures, number of animals",[2]; [18],0
same,"PR (partial response), number of animals",[2]; [18],0
same,antitumor effect,[2]; [17],modest tumor growth delay
C=C1C[C@@H]2CC[C@@]34C[C@H]5O[C@H]6[C@@H](O3)[C@H]3O[C@H](CC[C@@H]3O[C@H]6[C@H]5O4)CC(=O)C[C@@H]3[C@@H](OC)[C@@H](C[C@H](O)CN)O[C@H]3C[C@H]3O[C@@H](CC[C@@H]1O2)C[C@@H](C)C3=C [eribulin mesylate],"CR (complete response), number of animals",[3],0
same,"Cures, number of animals",[3],0
same,"PR (partial response), number of animals",[3],two
same,"PR (partial response), number of animals",[3]; listed as Eribulin mesylate,2
same,"CR (complete response), number of animals",[4]; [19],0
same,"Cures, number of animals",[4]; [19],0
same,"PR (partial response), number of animals",[4]; [19],one
same,"PR (partial response), number of animals","[4]; Eribulin mesylate 1 mg/kg SIW x 2 weeks, n=7, listed as Eribulin mesylate",1
same,antitumor activity,[4]; eribulin mesylate 1 mg/kg SIW x 2 weeks,did not display significant anti-tumor activity
C=C1C[C@H]2C=Nc3cc(OCCCCCOc4cc5c(cc4OC)C(=O)N4CC(=C)C[C@H]4C=N5)c(OC)cc3C(=O)N2C1 [EC2491],"remaining at 2 h, 500 nM",[5],95.6%
same,time stable in plasma,"Plasma stability, dog",greater than 24 h
same,time stable in plasma,"Plasma stability, rat",greater than 24 h
same,"remaining at 2 h, 500 nM",[6],63.1%
same,metabolism in CYP3A induced microsomes versus corn-oil treated controls,"[7]; dexamethasone-treated male rat liver microsomes, + NADPH",more rapid metabolism
same,percent of compound remaining,"[7]; absence of NADPH, after 1 h",approximately 63%
same,percent of compound remaining,"[7]; presence of NADPH, end of 1 h",2%
same,percent of compound remaining,"[8]; dog liver microsomes, absence of NADPH, after 1 h",~56%
same,percent of compound remaining,"[8]; male dog liver microsomes, presence of NADPH, end of 1 h",22%
same,metabolism in CYP3A induced microsomes versus corn-oil treated controls,"[8]; rifampin-treated dog liver microsomes, + NADPH",more rapid metabolism
same,"remaining at 2 h, 500 nM",[9],87.3%
same,"fraction unbound at 30 min, 500 nM",[10],0.02 to 0.05
same,percent of compound remaining,"[11]; absence of NADPH, after 1 h",~49%
same,percent of compound remaining,"[11]; presence of NADPH, end of 1 h",18%
same,"remaining at 2 h, 500 nM",[12],80.6%
same,stability in buffer,[13],stable
same,time stable in plasma,"Plasma stability, mouse",greater than 24 h
C=C1C[C@H]2C=Nc3cc(OCCCOc4cc5c(cc4OC)C(=O)N4CC(=C)C[C@H]4C=N5)c(OC)cc3C(=O)N2C1 [SJG-136],clinical toxicity,[14],dose-limiting hepatotoxicity and vascular leak syndrome
same,average weight loss,KB tumor xenografts,~ 10%
same,"deaths, number of animals","KB tumor xenografts; at 2 weeks post start of treatment, n=5",one
same,"CR (complete response), number of animals",KB tumor xenografts; n=5,0
same,"Cures, number of animals",KB tumor xenografts; n=5,2
same,"PR (partial response), number of animals",KB tumor xenografts; n=5,2
N.N.[Cl][Pt][Cl] [cisplatin],"CR (complete response), number of animals",KB-CR tumors; [20],0
same,"Cures, number of animals",KB-CR tumors; [20],0
same,"PR (partial response), number of animals",KB-CR tumors; [20],0
same,antitumor effect,KB-CR tumors; cisplatin 3 mg/kg BIW x 2 weeks,very little effect

# From publication PMC7391724 (Scientific Reports, 2020)
